# Measured values published in PubChem BioAssay (NCI).
#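 1) Cells in 96-well plates. 2) Compound, 48 h, 5 concentrations. 3) Linear interpolation between surrounding doses. 4) Unreached endpoint = highest concentration. GI50 marks 50% less growth. TGI: concentration producing complete growth inhibition.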
# Tests used:
# Assay in all cases: NCI tumour cell line growth inhibition, 48 h
# LOX IMVI melanoma = system: LOX IMVI melanoma
# UACC-257 melanoma = system: UACC-257 melanoma
# A498 renal = system: A498 renal
# RXF 393 renal = system: RXF 393 renal
# PC-3 prostate = system: PC-3 prostate
# SK-MEL-28 melanoma = system: SK-MEL-28 melanoma
# HS 578T breast = system: HS 578T breast
# OVCAR-4 ovarian = system: OVCAR-4 ovarian
# CAKI-1 renal = system: CAKI-1 renal
# HT29 colon = system: HT29 colon
# SNB-19 CNS = system: SNB-19 CNS
# ACHN renal = system: ACHN renal
# SK-MEL-2 melanoma = system: SK-MEL-2 melanoma
# MOLT-4 leukemia = system: MOLT-4 leukemia
# SK-OV-3 ovarian = system: SK-OV-3 ovarian
# MDA-MB-231 breast = system: MDA-MB-231 breast
# KM12 colon = system: KM12 colon
# CCRF-CEM leukemia = system: CCRF-CEM leukemia
# SW-620 colon = system: SW-620 colon
# MDA-MB-435 = system: MDA-MB-435
# TK-10 renal = system: TK-10 renal
# HOP-62 NSCLC = system: HOP-62 NSCLC
# SR leukemia = system: SR leukemia
# SN12C renal = system: SN12C renal
# NCI-H226 lung = system: NCI-H226 lung
# SF-539 CNS = system: SF-539 CNS
# 786-0 renal = system: 786-0 renal
# IGROV1 ovarian = system: IGROV1 ovarian
# NCI-H522 lung = system: NCI-H522 lung
# HCT-15 colon = system: HCT-15 colon
# OVCAR-8 ovarian = system: OVCAR-8 ovarian
# SF-295 CNS = system: SF-295 CNS
# U251 CNS = system: U251 CNS
# NCI-H23 lung = system: NCI-H23 lung
# K-562 leukemia = system: K-562 leukemia
# BT-549 breast = system: BT-549 breast
# HCC-2998 colon = system: HCC-2998 colon
# DU-145 prostate = system: DU-145 prostate
# EKVX NSCLC = system: EKVX NSCLC
# OVCAR-5 ovarian = system: OVCAR-5 ovarian
# M14 melanoma = system: M14 melanoma
# SNB-75 CNS = system: SNB-75 CNS
# NCI/ADR-RES ovarian = system: NCI/ADR-RES ovarian
# COLO 205 colon = system: COLO 205 colon
# A549 NSCLC = system: A549 NSCLC
# UO-31 renal = system: UO-31 renal
# SK-MEL-5 melanoma = system: SK-MEL-5 melanoma
# HOP-92 NSCLC = system: HOP-92 NSCLC
# MCF7 breast = system: MCF7 breast
# T-47D breast = system: T-47D breast
# OVCAR-3 ovarian = system: OVCAR-3 ovarian
# NCI-H460 lung = system: NCI-H460 lung
# RPMI-8226 leukemia = system: RPMI-8226 leukemia
# UACC-62 melanoma = system: UACC-62 melanoma
# HCT-116 colon = system: HCT-116 colon
# HL-60(TB) leukemia = system: HL-60(TB) leukemia
# MALME-3M melanoma = system: MALME-3M melanoma
# SF-268 CNS = system: SF-268 CNS
smiles,measurement,setting,value
O=S(=O)(NCCCNc1cc(-c2cn(-c3ccccc3)nc2-c2cccc(O)c2)ccn1)c1ccc(F)cc1,GI50,LOX IMVI melanoma,3 µM
same,TGI,LOX IMVI melanoma,10.7 µM
same,GI50,UACC-257 melanoma,2920 nM
same,TGI,UACC-257 melanoma,7.26 µM
same,GI50,A498 renal,2490 nM
same,TGI,A498 renal,9.81 µM
same,GI50,RXF 393 renal,3.21 µM
same,TGI,RXF 393 renal,14.6 µM
same,GI50,PC-3 prostate,3.11 µM
same,TGI,PC-3 prostate,8.5 µM
same,GI50,SK-MEL-28 melanoma,2580 nM
same,TGI,SK-MEL-28 melanoma,8.27 µM
same,GI50,HS 578T breast,2710 nM
same,TGI,HS 578T breast,9.22 µM
same,GI50,OVCAR-4 ovarian,3.82 µM
same,TGI,OVCAR-4 ovarian,48.9 µM
same,GI50,CAKI-1 renal,4.56 µM
same,TGI,CAKI-1 renal,44.6 µM
same,GI50,HT29 colon,2260 nM
same,TGI,HT29 colon,6.5 µM
same,GI50,SNB-19 CNS,4.67 µM
same,TGI,SNB-19 CNS,52.3 µM
same,GI50,ACHN renal,3.52 µM
same,TGI,ACHN renal,33.8 µM
same,GI50,SK-MEL-2 melanoma,2790 nM
same,TGI,SK-MEL-2 melanoma,9.14 µM
same,GI50,MOLT-4 leukemia,2150 nM
same,TGI,MOLT-4 leukemia,6.55 µM
same,GI50,SK-OV-3 ovarian,4.44 µM
same,TGI,SK-OV-3 ovarian,23.5 µM
same,GI50,MDA-MB-231 breast,2480 nM
same,TGI,MDA-MB-231 breast,7.19 µM
same,GI50,KM12 colon,3.24 µM
same,TGI,KM12 colon,11.7 µM
same,GI50,CCRF-CEM leukemia,2450 nM
same,TGI,CCRF-CEM leukemia,9.41 µM
same,GI50,SW-620 colon,3.76 µM
same,TGI,SW-620 colon,14.2 µM
same,GI50,MDA-MB-435,3.36 µM
same,TGI,MDA-MB-435,12.9 µM
same,GI50,TK-10 renal,7.41 µM
same,TGI,TK-10 renal,31.5 µM
same,GI50,HOP-62 NSCLC,4.98 µM
same,TGI,HOP-62 NSCLC,19.3 µM
same,GI50,SR leukemia,2080 nM
same,TGI,SR leukemia,6.09 µM
same,GI50,SN12C renal,4.32 µM
same,TGI,SN12C renal,28.2 µM
same,GI50,NCI-H226 lung,4.49 µM
same,TGI,NCI-H226 lung,21.6 µM
same,GI50,SF-539 CNS,2990 nM
same,TGI,SF-539 CNS,15.8 µM
same,GI50,786-0 renal,2350 nM
same,TGI,786-0 renal,6.23 µM
same,GI50,IGROV1 ovarian,4.29 µM
same,TGI,IGROV1 ovarian,33.5 µM
same,GI50,NCI-H522 lung,2290 nM
same,TGI,NCI-H522 lung,7.44 µM
same,GI50,HCT-15 colon,2450 nM
same,TGI,HCT-15 colon,7.9 µM
same,GI50,OVCAR-8 ovarian,4.15 µM
same,TGI,OVCAR-8 ovarian,18.3 µM
same,GI50,SF-295 CNS,1950 nM
same,TGI,SF-295 CNS,4.09 µM
same,GI50,U251 CNS,2970 nM
same,TGI,U251 CNS,10.3 µM
same,GI50,NCI-H23 lung,3.48 µM
same,TGI,NCI-H23 lung,19 µM
same,GI50,K-562 leukemia,2400 nM
same,TGI,K-562 leukemia,6.38 µM
same,GI50,BT-549 breast,2280 nM
same,TGI,BT-549 breast,7.78 µM
same,GI50,HCC-2998 colon,2200 nM
same,TGI,HCC-2998 colon,4.52 µM
same,GI50,DU-145 prostate,4.12 µM
same,TGI,DU-145 prostate,36.7 µM
same,GI50,EKVX NSCLC,3.92 µM
same,TGI,EKVX NSCLC,64.4 µM
same,GI50,OVCAR-5 ovarian,3.33 µM
same,TGI,OVCAR-5 ovarian,33.5 µM
same,GI50,M14 melanoma,2850 nM
same,TGI,M14 melanoma,8.75 µM
same,GI50,SNB-75 CNS,3.47 µM
same,TGI,SNB-75 CNS,16 µM
same,GI50,NCI/ADR-RES ovarian,3.24 µM
same,TGI,NCI/ADR-RES ovarian,22.4 µM
same,GI50,COLO 205 colon,1960 nM
same,TGI,COLO 205 colon,3.87 µM
same,GI50,A549 NSCLC,5.11 µM
same,TGI,A549 NSCLC,21 µM
same,GI50,UO-31 renal,2620 nM
same,TGI,UO-31 renal,11.9 µM
same,GI50,SK-MEL-5 melanoma,3.06 µM
same,TGI,SK-MEL-5 melanoma,10.1 µM
same,GI50,HOP-92 NSCLC,2660 nM
same,TGI,HOP-92 NSCLC,7.62 µM
same,GI50,MCF7 breast,3.26 µM
same,TGI,MCF7 breast,12.4 µM
same,GI50,T-47D breast,2890 nM
same,TGI,T-47D breast,8.76 µM
same,GI50,OVCAR-3 ovarian,3.28 µM
same,TGI,OVCAR-3 ovarian,14.9 µM
same,GI50,NCI-H460 lung,3.64 µM
same,TGI,NCI-H460 lung,13.9 µM
same,GI50,RPMI-8226 leukemia,2230 nM
same,TGI,RPMI-8226 leukemia,7.63 µM
same,GI50,UACC-62 melanoma,2920 nM
same,TGI,UACC-62 melanoma,12 µM
same,GI50,HCT-116 colon,2910 nM
same,TGI,HCT-116 colon,11.7 µM
same,GI50,HL-60(TB) leukemia,2200 nM
same,TGI,HL-60(TB) leukemia,5.85 µM
same,GI50,MALME-3M melanoma,2560 nM
same,TGI,MALME-3M melanoma,8.91 µM
same,GI50,SF-268 CNS,3.65 µM
same,TGI,SF-268 CNS,22.9 µM
